Data reported in patent publication US10071963B2, “Polymorphic form of N-[2-(6-fluoro-1H-indol-3-yl)ethyl]-3-(2,2,3,3-tetrafluoropropoxy)benzylamine hydrochloride for the treatment of Alzheimer's disease” (H. Lundbeck A/S, priority 2014, dated 2018).

How the values were obtained:
Assay type in all cases: physicochemical
[1] = Thermodynamic solubility in organic solvents; conditions: room temperature (about 23° C.); for Solubility: HPLC at 217 nm, hydrochloride
Procedure: Thermodynamic solubility of polymorphic form I and III of N-[2-(6-fluoro-1H-indol-3-yl)ethyl]-3-(2,2,3,3-tetrafluoropropoxy)benzylamine hydrochloride was measured by shaking an excess amount of the two polymorphic forms in the organic solvent in a sealed container at room temperature (about 23° C.). After equilibrium was attained, a sample was withdrawn, the solid filtered or centrifuged off and the clear filtrate/supernatant was assayed by HPLC at 217 nm. The precipitate was evaluated by XRPD to determine the polymorphic form.

[2] = Slurry experiments of polymorphic form I in solvents, solid evaluated by XRPD; conditions: no solvate formed, hydrochloride
Procedure: 6 mL of a solvent or solvent mixture is added into a glass vial together with polymorphic form I of N-[2-(6-fluoro-1H-indol-3-yl)ethyl]-3-(2,2,3,3-tetrafluoropropoxy)benzylamine hydrochloride. The added amount of compound is determined by the expected solubility in the relevant solvent or solvent system. If a clear solution is obtained anti-solvent and/or additional polymorphic form I of N-[2-(6-fluoro-1H-indol-3-yl)ethyl]-3-(2,2,3,3-tetrafluoropropoxy)benzylamine hydrochlorideis added until it is a suspension at the relevant temperature. The suspension is slurred for a prolonged period of time. The result of the slurry experiment is evaluated by filtering off the solid material and measuring XRPD on the isolated solid.
(§1) 6 mL of a toluene/acetonitrile (4:1) solvent mixture was added into a glass vial and 100 mg polymorphic form I of N-[2-(6-fluoro-1H-indol-3-yl)ethyl]-3-(2,2,3,3-tetrafluoropropoxy)benzylamine hydrochloride was added. The resulting suspension was heated to 50° C. A clear solution was obtained and another 50 mg was added. The suspension was stirred for one month at 50° C. Polymorphic form III of N-[2-(6-fluoro-1H-indol-3-yl)ethyl]-3-(2,2,3,3-tetrafluoropropoxy)benzylamine hydrochloride was obtained as evaluated by XRPD.
as §1, with “an acetone/heptane (1:4)” for “a toluene/acetonitrile (4:1)”, “C.” for “C. A clear solution was obtained and another 50 mg was added.”, “week” for “month”
6 mL of a methanol/toluene (1:9) solvent mixture was added into a glass vial and 100 mg polymorphic form I of N-[2-(6-fluoro-1H-indol-3-yl)ethyl]-3-(2,2,3,3-tetrafluoropropoxy)benzylamine hydrochloride was added. After stirring another 1 mL of the anti-solvent (toluene) was added +50 mg polymorphic form I of N-[2-(6-fluoro-1H-indol-3-yl)ethyl]-3-(2,2,3,3-tetrafluoropropoxy)benzylamine hydrochloride. […] To the 4 mL solutions another 1 mL of toluene was added and additional 50 mg polymorphic form I of N-[2-(6-fluoro-1H-indol-3-yl)ethyl]-3-(2,2,3,3-tetrafluoropropoxy)benzylamine hydrochloride. The resulting suspension was heated to 50° C. A clear solution was obtained and substance was added until a suspension was obtained. The suspension was stirred for one week at 50° C. Polymorphic form III of N-[2-(6-fluoro-1H-indol-3-yl)ethyl]-3-(2,2,3,3-tetrafluoropropoxy)benzylamine hydrochloride was obtained as evaluated by XRPD.
6 mL of isopropyl acetate was added into a glass vial and 50 mg polymorphic form I of N-[2-(6-fluoro-1H-indol-3-yl)ethyl]-3-(2,2,3,3-tetrafluoropropoxy)benzylamine hydrochloride was added. The resulting suspension was heated to 50° C. A clear solution was obtained and another 50 mg polymorphic form I of N-[2-(6-fluoro-1H-indol-3-yl)ethyl]-3-(2,2,3,3-tetrafluoropropoxy)benzylamine hydrochloride was added. Substance was added until a suspension was obtained at 50° C. The suspension was stirred for one week at 50° C. Polymorphic form III of N-[2-(6-fluoro-1H-indol-3-yl)ethyl]-3-(2,2,3,3-tetrafluoropropoxy)benzylamine hydrochloride was obtained as evaluated by XRPD.
6 mL of ethyl acetate was added into a glass vial and 150 mg polymorphic form I of N-[2-(6-fluoro-1H-indol-3-yl)ethyl]-3-(2,2,3,3-tetrafluoropropoxy)benzylamine hydrochloride was added. The resulting suspension was heated to 50° C. on a thermal stirrer plate. A clear solution was obtained and 50 mg polymorphic form I of N-[2-(6-fluoro-1H-indol-3-yl)ethyl]-3-(2,2,3,3-tetrafluoropropoxy)benzylamine hydrochloride was added. Polymorphic form I of N-[2-(6-fluoro-1H-indol-3-yl)ethyl]-3-(2,2,3,3-tetrafluoropropoxy)benzylamine hydrochloride was added until a suspension was obtained. The suspension was stirred for one month at 50° C. […]

[3] = Relative stability of polymorphic form I, II and III (competitive slurry in saturated solution); conditions: II and III in equal amounts, hydrochloride
Procedure: A saturated solution was prepared by heating 1.6 mL isopropyl acetate and 0.4 mL heptane to 70° C. and adding 50 mg of polymorphic form I of N-[2-(6-fluoro-1H-indol-3-yl)ethyl]-3-(2,2,3,3-tetrafluoropropoxy)benzylamine hydrochloride.
The supernatant was divided into two ampoules and kept at 60° C. and 70° C.
5 mg of polymorphic form I, II and III of N-[2-(6-fluoro-1H-indol-3-yl)ethyl]-3-(2,2,3,3-tetrafluoropropoxy)benzylamine hydrochloride was added to the 60° C. solution and left stirring at 60° C. for one and four days, respectively.
2.5 mg of polymorphic form I, II and III of N-[2-(6-fluoro-1H-indol-3-yl)ethyl]-3-(2,2,3,3-tetrafluoropropoxy)benzylamine hydrochloride was added to the 70° C. solution and left without stirring at 70° C. for three days.

[4] = 70° C., without stirring, three days
[5] = isopropyl acetate, 60° C., one and four days

## Cl.Fc1ccc2c(CCNCc3cccc(OCC(F)(F)C(F)F)c3)c[nH]c2c1 [polymorphic form III, N-[2-(6-fluoro-1H-indol-3-yl)ethyl]-3-(2,2,3,3-tetrafluoropropoxy)benzylamine hydrochloride]
[1]; 2-butanol
  Solubility: 9.3 mg base/mL
[1]; Isopropanol
  Solubility: 24.5 mg base/mL
[1]; Isopropyl acetate
  Solubility: 3.0 mg base/mL
[1]; organic solvents, compared with polymorphic form I
  Relative solubility and thermodynamic stability: slightly less soluble and therefore thermodynamically stable
[2]; slurried at 5° C.
  Transformation on slurrying / relative solubility and thermodynamic stability: less soluble and therefore thermodynamically stable
[2]; slurried at 25° C.
  Transformation on slurrying / relative solubility and thermodynamic stability: less soluble and therefore thermodynamically stable
[2]; slurried at 50° C.
  Transformation on slurrying / relative solubility and thermodynamic stability: less soluble and therefore thermodynamically stable
[3]; [4]
  Relative thermodynamic stability of the polymorphic forms: vanished
[3]; [5]
  Relative thermodynamic stability of the polymorphic forms: transforming into polymorphic form II

## Cl.Fc1ccc2c(CCNCc3cccc(OCC(F)(F)C(F)F)c3)c[nH]c2c1 [polymorphic form II, N-[2-(6-fluoro-1H-indol-3-yl)ethyl]-3-(2,2,3,3-tetrafluoropropoxy)benzylamine hydrochloride]
[3]; [4]
  Relative thermodynamic stability of the polymorphic forms: thermodynamically stable
[3]; [5]
  Relative thermodynamic stability of the polymorphic forms: thermodynamically stable

## Cl.Fc1ccc2c(CCNCc3cccc(OCC(F)(F)C(F)F)c3)c[nH]c2c1 [polymorphic form I, N-[2-(6-fluoro-1H-indol-3-yl)ethyl]-3-(2,2,3,3-tetrafluoropropoxy)benzylamine hydrochloride]
[1]; 2-butanol
  Solubility: 10.5 mg base/mL
[1]; Isopropanol
  Solubility: 25.2 mg base/mL
[1]; Isopropyl acetate
  Solubility: 3.4 mg base/mL
[2]; slurried at 5° C.
  Transformation on slurrying / relative solubility and thermodynamic stability: transformed into polymorphic form III
[2]; slurried at 25° C.
  Transformation on slurrying / relative solubility and thermodynamic stability: transformed into polymorphic form III
[2]; slurried at 50° C.
  Transformation on slurrying / relative solubility and thermodynamic stability: transformed into polymorphic form III
[3]; [5]
  Relative thermodynamic stability of the polymorphic forms: less stable than polymorphic form III
